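Assay format: 96-well plates, 48-hour exposure. GI50 marks 50% less growth. TGI: total growth inhibition.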
Tested on: MDA-MB-468 breast
Experiment: NCI tumour cell line growth inhibition, 48 h

Row | SMILES | GI50 [nM] | TGI [nM]
1 | COc1cc(Cn2c(-c3nonc3N)nc3ccccc32)ccc1C | 228 | –
2 | CC(C)[C@H]1C(=O)N[C@@H](CCCN=C(N)N)C(=O)NCC(=O)N[C@@H](CC(=O)O)C(=O)N[C@H](Cc2ccccc2)C(=O)N1C | 403 | 2180
3 | COc1cc(S(C)(=O)=O)ccc1Nc1nc2ccc(-c3ccc(NC(=O)[C@H](C)c4ccc(F)cc4)cc3)cn2n1 | 68600 | > 100000
4 | CC1=C2C(=O)[C@](C)(CO)C=C2C(=O)[C@](C)(O)C12CC2 | 1520 | 3160
5 | COc1cc2nc(-c3ccc(C(F)(F)F)cc3)cc(OCCCN3CCCCC3)c2cc1OC | 1030 | 3290
6 | Cc1c2ccc(N(C)c3ccnc(Nc4cccc(S(N)(=O)=O)c4)n3)cc2nn1C | 8210 | > 23500
7 | CCC(c1cccc(O)c1)C(CC)c1cccc(O)c1 (configuration not stated) | 28 | 4370
8 | CCN(CC)CCCC(C)Nc1c2ccc(C)cc2nc2ccc(OC)cc12 (configuration not stated) | 1280 | 2840
9 | CCN(CCNc1ccc(C)c2sc3ccccc3c(=O)c12)CC(C)(C)O | 1740 | 5030
10 | Cn1cc(CNCC2CCN(c3ncc(C(=O)NO)cn3)CC2)c2ccccc21 | < 10 | 476
11 | Cc1cc(N/N=C/c2nc(-c3ccc(Cl)cc3)oc2C)c2cc(Cl)ccc2n1 | 1780 | 3550
12 | CCC(C)[C@H]1OC(=O)[C@H](C(C)C)N(C)C(=O)[C@@H](C(C)C)OC(=O)[C@H](C(C)C)N(C)C(=O)[C@@H](C(C)CC)OC(=O)[C@H](C(C)C)N(C)C1=O (some centres not stated) | 440 | 1350
13 | CC(=O)Nc1ccc(NC(=O)Nc2cccc(-c3nc(-c4ccc(NC(=O)c5cccs5)cc4Cl)no3)c2)cc1C(F)(F)F | 449 | 1730
14 | COc1ccc(CN2c3ccccc3CCc3ccccc32)cc1F | 399 | > 100000
15 | COc1ccc(C(=O)N2c3ccccc3Sc3ccccc32)c(C(F)(F)F)c1 | 364 | 41500
16 | O=C1CC(=O)OC(c2ccc([N+](=O)[O-])cc2)O1 | 1670 | 3480
17 | COc1ccc(-c2cn[nH]c2-c2cc(OC)c3c(c2)OCCO3)cc1 | 115 | 2760
18 | C/C(=N\NC(N)=S)c1nc2ccc(Cl)cc2[nH]1 | 1970 | 19100
19 | CN(C)C(=O)O[C@@H]1CN[C@@H](C#Cc2cc3ncnc(Nc4ccc(OCc5cccc(F)c5)c(Cl)c4)c3s2)C1 | 1740 | 12700
